From PMC8116649 (Frontiers in Pharmacology, 2021)
Read-outs that look alike come from different tables or passages of the source. Blank lines part the entries; values can stand above or below the compound they belong to.

Key:
[1] = cited from earlier work
[2] = target: ethoxyresorufin-O-deethylase; set-up: method as in Cai et al., 1993; conditions: mice liver microsomes; ref Cai et al., 1993; cited from earlier work
[3] = target: T1, CYP1A2 (Homo sapiens, UniProt P05177); experiment: Caffeine-N-demethylase assay with 14C-caffeine in human liver microsomes, IC50 determination
T1 sequence (P05177 1-516): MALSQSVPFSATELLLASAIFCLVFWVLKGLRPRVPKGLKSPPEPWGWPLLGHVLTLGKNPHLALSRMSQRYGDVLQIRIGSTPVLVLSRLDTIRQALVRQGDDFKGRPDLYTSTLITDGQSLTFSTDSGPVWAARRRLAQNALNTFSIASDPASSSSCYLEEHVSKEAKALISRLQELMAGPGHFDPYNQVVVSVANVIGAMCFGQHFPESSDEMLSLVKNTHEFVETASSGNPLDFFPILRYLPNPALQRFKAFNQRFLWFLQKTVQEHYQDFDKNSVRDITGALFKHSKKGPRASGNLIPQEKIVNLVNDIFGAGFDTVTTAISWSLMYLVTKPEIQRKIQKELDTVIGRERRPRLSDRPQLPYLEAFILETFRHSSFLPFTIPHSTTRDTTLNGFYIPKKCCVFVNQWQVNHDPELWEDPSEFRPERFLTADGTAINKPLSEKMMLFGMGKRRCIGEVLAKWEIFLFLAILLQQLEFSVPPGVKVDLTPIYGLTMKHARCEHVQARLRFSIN
Experimental: Incubation was conducted at 37°C in a metabolic incubator with a 60 cycles/min shaking rate. At the conclusion of 10 min incubation, the reaction was terminated by the addition of 10% TCA solution (50.0 µl). The incubation mixture was centrifuged at 4,000×g. An aliquot (300.0 µl) of the supernatant was applied to a 3.0 ml Sigma-Aldrich Superclean ENVI-Carbon solid phase extraction (SPE) tube (0.25 g, 80–100 mesh). […] The eluant was collected into a scintillation vial. After the addition of 15.0 ml scintillation cocktail, the radioactivity in the vial was counted in a liquid scintillation counter. The results were expressed as residual counts of the control incubation.
CYP 1A2 activity inhibition was plotted against log furanocoumarin concentration after normalizing the inhibition data from 0–100%. The resulting inhibition-concentration curves were fitted separately to a four-parameter logistic function to determine the IC50 values. Curve fitting was performed using the GraphPad Prism version 5.04 (GraphPad Software, San Diego, CA). The IC50 represented the concentration of the furanocoumarin chemical to evoke a half maximal inhibition of the CYP 1A2 activity.

[4] = target: T1, CYP1A2; experiment: Pre-incubation time- and furanocoumarin concentration-dependent inhibition of caffeine metabolism in HLMs; conditions: for KI: HLMs 1.2 mg/ml, pre-incubation with NADPH, CYP 1A2 inactivation
Experimental: (§1) In the pre-incubation step, HLMs (1.2 mg/ml) were pre-incubated with different furanocoumarin concentrations in the presence of NADPH for various time periods at 37°C. […] The final incubation volume was 320.0 µl. At the conclusion of a 10 min incubation, the reaction was stopped by the addition of a 10% TCA solution. The incubation mixture was extracted by a SPE tube, and the radioactivity in the eluant was counted in a liquid scintillation counter as described earlier.
(§2) The observed in vitro rate constant (kobs) was calculated using the slopes of linear regression analyses from natural logarithm (Ln) percentage remaining activity against pre-incubation time plots. The maximum inactivation rate constant (kinact) was calculated using the non-linear regression analyses of plots of the inactivator concentrations against kobs values. […] The plotting was performed using the GraphPad Prism version 5.04 (GraphPad Software, San Diego, CA).

[5] = Caffeine pharmacokinetics in saliva/plasma of untreated human volunteers (baseline); format: in vivo; conditions: caffeine 200 mg single oral dose
Experimental: Male human volunteers, between 21 and 30 years old and living in the Metro Vancouver area, were recruited for the study. The volunteers had to meet specific eligibility criteria: not smoking, use medication, consume alcohol heavily or have any health concerns which may affect the test results. […] The participants were also asked to refrain from consuming solid foods 3.0 h prior to the study. The study protocol was approved by the Simon Fraser University Office of Research Ethics with approval number 2012s0565 and registration number ISRCTN83028296.
This study adopted a non-randomized, single-blinded, and crossover design in which each subject acted as their own control ([Sheriffdeen et al., 2019]). […] In the ARFP extract treatment study, the same group of volunteers was used after a 4 days washout period. […] Saliva samples were collected at 0.5, 1.0, 1.5, 2.0, 2.5, 3.0, 4.0, 6.0, 8.0, 12.0, 24.0, 36.0, and 48.0 h post-dosing. All saliva samples were stored in the dark at freezing temperature until they were ready for extraction and HPLC-UV analysis.
The saliva samples were thawed at room temperature, mixed by vortexing for 30 s, and centrifuged for 10 min at 4,000×g. Exactly 200.0 µl aliquot of the saliva sample was removed and spiked with 100.0 µl of the internal standard (ISTD) benzotriazole (50.0 μg/ml). […]
The following pharmacokinetic parameters were determined: the Tmax (time to reach peak plasma level) and Cmax (concentration of peak plasma level) were determined by visual inspection. The AUC0-inf (area under plasma concentration-time curve from zero to infinity) was determined by non-compartmental analysis using the PK Solver software ([Zhang et al., 2010]). The AUC0-inf was determined using the log-linear trapezoidal rule from dosing time to last time point and extrapolated to infinity by dividing the last concentration with the elimination rate constant. The AUC ratio was calculated by dividing the AUC0-inf after ARFP extract pretreatment with the AUC0-inf before ARFP extract pretreatment.

[6] = cited from earlier work; remark: listed apart in the source
[7] = target: 7-ethoxycoumarin deethylase; set-up: method as in Tinel et al., 1987; conditions: HLMs; ref Tinel et al., 1987; cited from earlier work
[8] = target: benzo(a)pyrene hydroxylase; set-up: method as in Tinel et al., 1987; conditions: HLMs; ref Tinel et al., 1987; cited from earlier work
[9] = target: T1, CYP1A2
Experimental: as §1, §2

[10] = rats, cited from earlier work
[11] = target: human CYP 1A2 isozyme; set-up: method as in Kang et al., 2011; conditions: mechanism-based inhibition; ref Kang et al., 2011; cited from earlier work

SMILES: COc1c2ccoc2cc2oc(=O)ccc12 [5-MOP, 5-methoxypsoralen]
Tmax ([1]; PUVA patients, ref Shephard et al., 1999): 2.8 ± 0.8 h
Tmax ([1]; healthy humans, ref Stolk et al., 1981): 3.0 ± 0.6 h
IC50 [2]: 2300 nM
IC50 [3]: 130 nM
KI [4]: 3730 ± 3660 nM
kinact ([4]; human, human liver microsomes, probe caffeine (6.4 µM non-labeled + 0.2 µCi 14C-caffeine)): 0.00583 s⁻¹

SMILES: Cn1c(=O)c2c(ncn2C)n(C)c1=O [Caffeine, caffeine]
Tmax UT ([5]; plasma (from saliva), untreated volunteers of the study group of that line): 0.8 h
Cmax ([5]; male, human, plasma (calculated from saliva concentrations), po, 200 mg, untreated volunteers): 5100 ng/mL
AUC(0-inf) ([5]; male, human, plasma (calculated from saliva concentrations), po, 200 mg, untreated volunteers, read-out: AUC0-inf UT): 33500 to 55800 ng·h/mL
AUC ([6]; 12 human volunteers, 167 mg orally, ref Fuhr et al., 1993): 28500 ± 14900 ng·h/mL
AUC ([6]; healthy volunteers, 5 mg/kg dose, mean ± SD, ref Kamimori et al., 1995): 60800 ± 23700 ng·h/mL
Time to reach the peak concentration in the blood ([6]; single oral dose, ref Tang-Liu et al., 1983): ≤ 1.0 h

KI [4]: 780 ± 320 nM
SMILES: COc1c2occc2cc2ccc(=O)oc12 [8-MOP, 8-methoxypsoralen]
IC50 [7]: ~25000 nM
IC50 [8]: ~25000 nM

KI [9]: 4480 ± 560 nM
IC50 [3]: 290 nM
SMILES: COc1c2ccoc2c(OC)c2oc(=O)ccc12 [ISOP, isopimpinellin]
Tmax ([10]; oral dose of C. monnieri herbal product, ref Li et al., 2014): 1.1 ± 0.3 h
Tmax ([10]; oral dose of Toddalia asiatica herbal product, ref Liu et al., 2012): 1.3 ± 0.3 h
IC50 [2]: 1900 nM
KI [11]: 1200 nM
kinact [11]: 0.34 min⁻¹
